{"source": "patent US6713250B1", "about": "“Identification of human allergens and T-lymphocyte antigens in vitro” (The Research Foundation of State University of New York, priority 1997, dated 2004)", "key": {"[1]": {"system": "human naive T-cells (PBMC)", "test": "Primary in vitro sensitization culture of PBMC with or without mitomycin C treated T2 cells, 3H-thymidine uptake", "assay_type": "cell-based", "conditions": "for response of PBMC, FIG. 4: PBMC incubated 6 days with mitomycin C treated T2 cells", "method": "Preparation of peripheral blood mononuclear cells (PBMC). The research protocol was approved by the Committee on Research Involving Human Subjects of SUNY @ Stony Brook. After informed consent, heparinized blood was obtained by venipuncture. PBMC (peripheral blood mononuclear cells, which include lymphocytes and macrophages/monocytes) were prepared from heparinized peripheral blood by density centrifugation over Ficoll/Hypaque (Pharmacia, Piscataway, N.J.). PBMC were then washed 3 times in serum free wash medium consisting of SMEM (Gibco, Grand Island, N.Y.), and mixed (1:1) with AIM V medium (Gibco). At no time did the PBMC contact animal serum. PBMC were counted, and resuspended at 2×10^6 cells/ml in AIM V medium (Gibco).\nPreparation and mitomycin C treatment of T2 cells. T2 cells were cultured in AIM V media (Gibco). Prior to treatment, they were washed, counted, and resuspended in AIM V media at 2×10^6 cells/ml. Mitomycin C (Sigma, St Louis, Mo.) was then added at 30 μg/ml for a 2 hour incubation at 37° C. The T2 cells were then washed 4 times in serum free wash media, counted with trypan blue dye exclusion, and resuspended at 1×10^6 cells/ml.\n(§1) In vitro sensitization cultures. Cell cultures were performed in 96 well U-bottom trays (Linbro), with a total volume of 0.2 ml/well of AIM V medium (Gibco). PBMC (2×10^6/ml) were first admixed with equal volumes of T2 cells (1×10^6/ml), and 0.1 ml of the cell mixture was added to each well. Test compounds were then added (0.1 ml/well) at twice the desired final concentration. Each well contained 1×10^5 PBMC, 5×10^4 T2 cells, and the test compound. Control wells contained 0.1 ml of media rather than test compound. The final ratio of PBMC to T2 cells was 2:1. There were 6 replicate wells per group. The 96-well trays were then cultured for 6 days at 37° C. in a 7.5% Co2 incubator. After 6 days, 1 μCi of ^3H-thymidine was added to each well. The wells were harvested 18 hours later, and ^3H-thymidine uptake was determined with a scintillation counter (Pharmacia LKB Nuclear, Gaithersburg, Md.)."}, "[2]": {"system": "human naive T-cells (PBMC)", "test": "Primary in vitro sensitization culture of PBMC with or without mitomycin C treated T2 cells, 3H-thymidine uptake", "assay_type": "cell-based"}, "[3]": {"system": "T-cells (E+) and non-T cells (E-)", "test": "In vitro sensitization culture of purified T-cells / non-T cells mixtures with mitomycin C treated T2 cells, 3H-thymidine uptake", "assay_type": "cell-based, human", "conditions": "for MEAN/SEM (3H-thymidine uptake) / S.I.: T2 cells YES, paraphenylenediamine 10 μg/ml", "method": "Purification of T-lymphocytes. Sheep erythrocyte receptor positive (E+) T-cells and negative (E−) non-T-cells were isolated by rosetting followed by centrifugation over a Ficoll-Hypaque gradient and lysis of sheep erythrocytes by ammonium chloride as described (38). The (E+) population was greater than 95% CD3+ as determined by cytofluorgraph analysis (below).\nas §1\nLymphocyte proliferation assays are generally the result of T-lymphocyte proliferation. It was confirmed that this was also true of this novel in vitro sensitization system. T-cells (70%) were mixed with irradiated (6,000R) non-T cells (30%) for a test of in vitro sensitization to paraphenylenediamine in the presence of mitomycin C treated T2 cells. In a reciprocal group, non-T cells (70%) were mixed with irradiated T-cells (30%). These cell mixtures were added to the culture system, admixed with mitomycin C treated T2 cells, and paraphenylenediamine. […] The T2 cells are not functioning as antigen presenting cells (which is to be expected since the T2 cells lack antigen presenting Major Histocompatibility Complex antigens HLA-DR and HLA-A,B,C), but rather function as accessory cells."}, "[4]": {"conditions": "PBMC from 4 donors, 6 days with mitomycin C treated T2 cells, each compound 3.3 μM to 60 μM"}, "[5]": {"conditions": "PBMC 1 × 10^5/well, no T2 cells, 3 μg/ml"}, "[6]": {"conditions": "PBMC at 1 × 10^5/well, T2 cells at 1 × 10^5/well, 3 μg/ml"}, "[7]": {"conditions": "PBMC, NO T2 CELLS, paraphenylenediamine 10 μg/ml"}, "[8]": {"conditions": "PBMC + T2 CELLS (mitomycin C treated), paraphenylenediamine 10 μg/ml"}, "[9]": {"conditions": "PBMC at 1 × 10^5/well, T2 cells at 5 × 10^4/well, 3 μg/ml"}, "[10]": {"conditions": "T-cells 30% (6,000R), non-T cells 70%"}, "[11]": {"conditions": "T-cells 70%, non-T cells 30% (6,000R)"}}, "note": "Where “and” joins values, the source holds several entries; their conditions need not be identical. Identical values can stand only once. Marks after values point to notes of the source that are not given here."}
{"smiles": "Oc1ccccc1O", "note": "[catechol]", "values": [{"measurement": "response of PBMC, FIG. 4", "setting": "[1]", "value": "positive response"}]}
{"smiles": "CCCCCCCCCCCCOS(=O)(=O)[O-].[Na+]", "note": "[SDS, sodium dodecyl sulfate]", "values": [{"measurement": "donor PBMC that responded, FIG. 2", "setting": "[2]; [4]", "value": "none"}, {"measurement": "response of PBMC, FIG. 4", "setting": "[1]", "value": "negative response"}, {"measurement": "induction of a response of naive human T-lymphocytes in the culture system", "setting": "[1]; culture with accessory T2 cells", "value": "did not induce a response"}]}
{"smiles": "Nc1ccc(N)cc1", "note": "[paraphenylenediamine]", "values": [{"measurement": "MEAN dpm (3H-thymidine uptake of 6 replicate wells)", "setting": "[2]; [5]", "value": 2869, "unit": "dpm"}, {"measurement": "S.I. (Stimulation index: response to antigen/response to media)", "setting": "[2]; [5]", "value": 0.96}, {"measurement": "MEAN dpm (3H-thymidine uptake of 6 replicate wells)", "setting": "[2]; [6]", "value": 7856, "unit": "dpm"}, {"measurement": "S.I. (Stimulation index: response to antigen/response to media)", "setting": "[2]; [6]", "value": 1.12}, {"measurement": "donor PBMC that responded, FIG. 3", "setting": "[2]; PBMC from 6 donors, 6 days with mitomycin C treated T2 cells", "value": "3/6"}, {"measurement": "MEAN (3H-thymidine uptake of 6 replicate wells)", "setting": "[2]; [7]", "value": 3054}, {"measurement": "S.I. (Stimulation index: response to antigen/response to media)", "setting": "[2]; [7]", "value": "1.03^"}, {"measurement": "response of naive donor PBMC to antigen", "setting": "[2]; absence of T2 cells, paraphenylenediamine 3 μg/ml, HIV gp160 P18 peptide 10 μg/ml", "value": "no response"}, {"measurement": "MEAN (3H-thymidine uptake of 6 replicate wells)", "setting": "[1]; [8]", "value": 11973}, {"measurement": "S.I. (Stimulation index: response to antigen/response to media)", "setting": "[1]; [8]", "value": "2.09^e"}, {"measurement": "response of naive donor PBMC to antigen", "setting": "[1]; PBMC admixed with T2 cells at a ratio of 2:1, paraphenylenediamine 3 μg/ml, HIV gp160 P18 peptide 10 μg/ml", "value": "statistically significant response"}, {"measurement": "MEAN dpm (3H-thymidine uptake of 6 replicate wells)", "setting": "[1]; [9]", "value": 6935, "unit": "dpm"}, {"measurement": "S.I. (Stimulation index: response to antigen/response to media)", "setting": "[1]; [9]", "value": "1.97^c"}, {"measurement": "donor PBMC that responded, FIG. 2", "setting": "[1]; [4]", "value": "3/4 and 3"}, {"measurement": "response of PBMC (3H-thymidine uptake), FIG. 1", "setting": "[1]; PBMC from 4 donors, presence or absence of mitomycin C treated T2 cells, 3 μg/ml, 6 days", "value": "Only in the presence of T2 cells was there a response"}, {"measurement": "response of PBMC, FIG. 4", "setting": "[1]", "value": "positive response"}, {"measurement": "MEAN/SEM (3H-thymidine uptake)", "setting": "[3]; [10]", "value": "3096/446"}, {"measurement": "S.I.", "setting": "[3]; [10]", "value": "0.57^"}, {"measurement": "MEAN/SEM (3H-thymidine uptake)", "setting": "[3]; [11]", "value": "50220/2643"}, {"measurement": "S.I.", "setting": "[3]; [11]", "value": "1.94^e"}, {"measurement": "MEAN/SEM (3H-thymidine uptake)", "setting": "[3]; T-cells YES, non-T cells NO", "value": "2263/317"}, {"measurement": "S.I.", "setting": "[3]; T-cells YES, non-T cells NO", "value": "0.67^"}, {"measurement": "response to paraphenylenediamine", "setting": "[3]; T-cells admixed with T2 cells in the absence of non-T cells", "value": "no response"}, {"measurement": "response to paraphenylenediamine", "setting": "[3]; group where the T-cells had been irradiated (6,000R), mitomycin C treated T2 cells", "value": "no response"}, {"measurement": "response to paraphenylenediamine", "setting": "[3]; groups with non-irradiated T-cells, mitomycin C treated T2 cells", "value": "only detected in the groups with non-irradiated T-cells"}]}
{"smiles": "Nc1ccc(O)cc1", "note": "[p-aminophenol]", "values": [{"measurement": "response of PBMC, FIG. 4", "setting": "[1]", "value": "positive response"}]}
